In ChEMBL document CHEMBL1139151, “Minor groove binder antibody conjugates employing a water soluble beta-glucuronide linker” (Bioorg Med Chem Lett, 2007) one finds IC50 data, which are given here for one compound.

Common to all, as to format: functional, cell-based
A short description of assay [1]: Cytotoxicity against CD30 positive Karpas 299 cells assessed as cell viability after 96 hrs. The settings on record: Homo sapiens, KARPAS-299, 96 h.
The nature of assay [2]: Cytotoxicity against CD30 positive L540 Cy cells assessed as cell viability after 96 hrs. The settings on record: Homo sapiens, L540cy.
The subject of another assay is L-428. Briefly: Cytotoxicity against CD30 positive and CD70 negative L428 cells assessed as cell viability after 96 hrs. The settings on record: Homo sapiens, L-428, 96 h.
A further assay has as its system CAKI-1. The assay is described as follows: Cytotoxicity against CD70 positive Caki1 cells assessed as cell viability after 96 hrs. The settings on record: Homo sapiens, CAKI-1, 96 h.

For `COc1ccc(/C=C/C(=O)N2CC(CCl)c3c2cc(N)c2ccccc32)cc1` (centres undefined), the half-inhibitory concentration (IC50) was 1.2 nM in assay [1], 0.5 nM in assay [2], 0.1 nM with L-428 and 0.7 nM in the assay with CAKI-1.

The IC50 is the concentration at which inhibition is half-maximal.
